Tests used:
[1] = system: caterpillars of the fall armyworm (Spodoptera frugiperda); assay: Spodoptera frugiperda spray test; type: in vivo; conditions: foliar, 168 h, 100 g/ha, after 7 days, maize leaf discs, read-out: efficacy
Method: (§1) Solvent: 78.0 parts by weight of acetone • • 1.5 parts by weight of dimethylformamide
(§2) Emulsifier: alkylaryl polyglycol ether
(§3) To produce a suitable active compound formulation, 1 part by weight of active compound is dissolved with the specified parts by weight of solvent and made up to the desired concentration with water containing an emulsifier concentration of 1000 ppm. To produce further test concentrations, the formulation is diluted with emulsifier-containing water.
Leaf discs of maize (Zea mays) are sprayed with an active compound formulation of the desired concentration and, after drying, populated with caterpillars of the fall armyworm (Spodoptera frugiperda).
After 7 days, the efficacy in % is determined. 100% means that all the caterpillars have been killed; 0% means that no caterpillar has been killed.

[2] = system: green peach aphid (Myzus persicae); assay: Myzus persicae spray test; type: in vivo; conditions: foliar, 120 h, 100 g/ha, after 5 days, Chinese cabbage leaf discs, read-out: efficacy
Method: Solvent: 78 parts by weight of acetone • • 1.5 parts by weight of dimethylformamide
as §2, §3
Discs of Chinese cabbage leaves (Brassica pekinensis) infested by all stages of the green peach aphid (Myzus persicae) are sprayed with an active compound formulation of the desired concentration.
(§4) After 5 days, the efficacy in % is determined. 100% means that all the aphids have been killed; 0% means that no aphids have been killed.

[3] = system: green peach aphids (Myzus persicae); assay: Myzus persicae oral test; type: in vivo; conditions: 120 h, 4 ppm, after 5 days, read-out: efficacy
Method: Solvent: 100 parts by weight of acetone
To produce a suitable active compound formulation, 1 part by weight of active compound is dissolved with the stated parts by weight of solvent and made up to the desired concentration with water.
50 μl of the active compound formulation are transferred into microtitre plates and made up to a final volume of 200 μl with 150 μl of IPL41 insect medium (33%+15% sugar). Subsequently, the plates are sealed with parafilm, which a mixed population of green peach aphids (Myzus persicae) within a second microtitre plate is able to puncture and imbibe the solution.
as §4

[4] = system: adult cat fleas (Ctenocephalides felis); assay: Ctenocephalides felis oral test; type: in vivo; conditions: 48 h, 100 ppm in citrated cattle blood, after 2 days, read-out: efficacy (kill)
Method: (§5) Solvent: dimethyl sulfoxide
To produce a suitable active compound formulation, 10 mg of active compound are mixed with 0.5 ml of dimethyl sulfoxide. Dilution with citrated cattle blood gives the desired concentration.
About 20 unfed adult cat fleas (Ctenocephalides felis) are placed into a chamber which is closed at the top and bottom with gauze. A metal cylinder whose bottom end is closed with parafilm is placed onto the chamber. The cylinder contains the blood/active compound formulation, which can be imbibed by the fleas through the parafilm membrane.
After 2 days, the kill in % is determined. 100% means that all of the fleas have been killed; 0% means that none of the fleas have been killed.

[5] = system: adult houseflies (Musca domestica); assay: Musca domestica test; type: in vivo; conditions: after 2 days
Method: as §5
(§6) To produce a suitable active compound formulation, 10 mg of active compound are mixed with 0.5 ml of dimethyl sulfoxide, and the concentrate is diluted with water to the desired concentration.
Vessels containing a sponge treated with sugar solution and the desired concentration of active compound formulation are populated with 10 adult houseflies (Musca domestica).
After 2 days, the kill in % is determined. 100% means that all of the flies have been killed; 0% means that none of the flies have been killed.

[6] = system: L1 larvae of the Australian sheep blowfly (Lucilia cuprina); assay: Lucilia cuprina test; type: in vivo; conditions: 48 h, 100 ppm, after 2 days, read-out: efficacy (kill)
Method: as §5, §6
About 20 L1 larvae of the Australian sheep blowfly (Lucilia cuprina) are transferred into a test vessel containing minced horsemeat and the active compound formulation of the desired concentration.
After 2 days, the kill in % is determined. 100% means that all the larvae have been killed; 0% means that no larvae have been killed.

[7] = system: adult cat fleas (Ctenocephalides felis); assay: Ctenocephalides felis in vitro contact test with adult cat fleas; type: in vivo; conditions: application rate 5 μg/cm^2 (=500 g/ha), after 48 h, dead or moribund fleas
Method: For the coating of the test tubes, 9 mg of active compound are first dissolved in 1 ml of acetone p.a. and then diluted to the desired concentration with acetone p.a. 250 μl of the solution are distributed homogeneously on the inner walls and the base of a 25 ml glass tube by turning and rocking on an orbital shaker (rocking rotation at 30 rpm for 2 h). With 900 ppm of active compound solution and internal surface area 44.7 cm^2, given homogeneous distribution, an area-based dose of 5 μg/cm^2 is achieved.
After the solvent has evaporated off, the tubes are populated with 5-10 adult cat fleas (Ctenocephalides felis), sealed with a perforated plastic lid and incubated in a horizontal position at room temperature and ambient humidity. After 48 h, efficacy is determined. To this end, the tubes are stood upright and the fleas are knocked to the base of the tube. Fleas which remain motionless at the base or move in an uncoordinated manner are considered to be dead or moribund.
100% efficacy means that all the fleas were dead or moribund. 0% efficacy means that no fleas were harmed.

[8] = system: larvae of the mustard beetle (Phaedon cochleariae); assay: Phaedon cochleariae spray test; type: in vivo; conditions: foliar, 168 h, 100 g/ha, after 7 days, Chinese cabbage leaf discs, read-out: efficacy
Method: as §1, §2, §3
Discs of Chinese cabbage leaves (Brassica pekinensis) are sprayed with an active compound formulation of the desired concentration and, after drying, populated with larvae of the mustard beetle (Phaedon cochleariae).
After 7 days, the efficacy in % is determined. 100% means that all the beetle larvae have been killed; 0% means that no beetle larvae have been killed.

[9] = logP by HPLC on reversed-phase column (C18), acidic range; type: physicochemical; conditions: reversed-phase HPLC column (C18), formic acid in water/acetonitrile
Method: The logP values were determined according to EEC Directive 79/831 Annex V.A8 by HPLC (high-performance liquid chromatography) on a reversed-phase column (C18) using the following methods:
Calibration was carried out using a homologous series of straight-chain alkan-2-ones (having 3 to 16 carbon atoms) with known logP values. The values between successive alkanones are determined by linear regression.

[10] = system: southern root-knot nematode (Meloidogyne incognita); assay: Meloidogyne incognita test; type: in vivo; conditions: 20 ppm, after 14 days, lettuce
Method: Solvent: 125.0 parts by weight of acetone
To produce a suitable active compound formulation, 1 part by weight of active compound is mixed with the stated amount of solvent and the concentrate is diluted to the desired concentration with water.
Vessels are filled with sand, active compound solution, an egg/larvae suspension of the southern root-knot nematode (Meloidogyne incognita) and lettuce seeds. The lettuce seeds germinate and the plants develop. The galls develop on the roots.
After 14 days, the nematicidal efficacy in % is determined by the formation of galls. 100% means that no galls were found; 0% means that the number of galls on the treated plants corresponds to the untreated control.

[11] = system: engorged adult female cattle ticks (Boophilus microplus); assay: Boophilus microplus injection test; type: in vivo; conditions: 20 μg/animal, injection into abdomen
Method: as §5
To produce a suitable active compound formulation, 10 mg of active compound are mixed with 0.5 ml of solvent and the concentrate is diluted to the desired concentration with solvent.
1 μl of the active compound solution is injected into the abdomen of 5 engorged adult female cattle ticks (Boophilus microplus). The animals are transferred into dishes and kept in a climate-controlled room.
The activity is assessed after the desired time by laying of fertile eggs. Eggs which are not visibly fertile are stored in a climate-controlled cabinet until the larvae hatch after about 42 days. An efficacy of 100% means that none of the ticks has laid any fertile eggs; 0% means that all the eggs are fertile.

chromatographic logP [9] | SMILES | pest or weed control at 100 g/ha [1] | pest or weed control at 100 g/ha [2] | pest or weed control at 4 ppm [3] | pest or weed control at 100 ppm [4] | efficacy (kill) ([5]; 100 ppm) | pest or weed control at 100 ppm [6] | efficacy [7] | pest or weed control at 100 g/ha [8] | nematicidal efficacy (formation of galls) [10] | efficacy (kill) ([5]; 20 ppm) | efficacy (no laying of fertile eggs) [11]
 | CCS(=O)(=O)c1c(-c2nc3cc(C(F)(F)F)cnc3n2C)nc2cc(NC(=O)C3CC3)ccn12 [Example I-01] | 100% | 90% | 100% | 100% | 80% | 100% | 100% | 100% |  |  | 
2.71 | CCS(=O)(=O)c1c(-c2nc3cc(C(F)(F)F)cnc3n2C)nc2cc(NC(=S)NC3CC3)ccn12 [Example I-05, 1-Cyclopropyl-3-{3-(ethylsulfonyl)-2-[3-methyl-6-(trifluoromethyl)-3H-imidazo[4,5-b]pyridin-2-yl]imidazo [1,2-a]pyridin-7-yl}thiourea] | 100% | 90% | 100% | 100% | 100% | 100% |  | 100% | 90% |  | 
2.55 | CCS(=O)(=O)c1c(-c2nc3cc(C(F)(F)F)cnc3n2C)nc2cc(NS(=O)(=O)NC3CC3)ccn12 [Example I-07, N-Cyclopropyl-N′-{3-(ethylsulfonyl)-2-[3-methyl-6-(trifluoromethyl)-3H-imidazo[4,5-b]pyridin-2-yl]imidazo[1,2-a]pyridin-7-yl}sulfurdiamide] |  |  | 100% | 100% | 80% | 100% | 100% |  |  |  | 
2.89 | CCS(=O)(=O)c1c(-c2nc3cc(C(F)(F)F)cnc3n2C)nc2cc(S(=O)(=O)C3CC3)ccn12 [Example I-09, 2-[7-(Cyclopropylsulfonyl)-3-(ethylsulfonyl)imidazo[1,2-a]pyridin-2-yl]-3-methyl-6-(trifluoromethyl)-3H-imidazo[4,5-b]pyridine] | 100% | 90% | 100% | 100% |  | 100% | 100% | 100% |  | 80% | 
 | CCS(=O)(=O)c1c(-c2nc3cc(SC(F)(F)F)cnc3n2C)nc2cc(S(=O)(=O)C3CC3)ccn12 [Example I-12] | 100% | 100% | 100% | 100% | 100% |  |  | 100% |  |  | 
 | CCS(=O)(=O)c1c(-c2nc3cc(C(F)(F)F)cnc3n2C)nc2cc(C(=O)C3CC3)ccn12 [Example I-20] | 100% |  |  |  |  |  |  | 100% |  |  | 80%
 | CCS(=O)(=O)c1c(-c2nc3cc(C(F)(F)F)cnc3n2C)nc2cc(C(F)(F)C3CC3)ccn12 [Example I-21] | 100% |  |  | 100% |  |  |  | 100% |  |  | 90%
